Here are results for three molecules from PMC7377239, “Cardiovascular Effects of Polychlorinated Biphenyls and Their Major Metabolites” (Environmental Health Perspectives, 2020).

The subject of assay [1] is iCell endothelial cells (human iPSC-derived ECs). Briefly: Tube formation (tubulogenesis) assay in iCell endothelial cells, 18 h. The class given is cell-based. The conditions noted are these: Homo sapiens, Endothelial cell, 18 hr; for activity at 0.1 µM: 0.10 µM. An outline of the steps: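 Tube formation was measured by calcein AM imaging after overnight compound exposure (37°C, 0.5% DMSO vehicle) of human iPSC-derived ECs, 7,500/well, on reduced-growth-factor Geltrex in starvation medium. Vehicle-normalized data fitted to four-parameter logistic; POD set at one vehicle SD; without response, 100 μM taken as NOAEL.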

The test system of a further assay is HUVECs. Briefly: Tube formation (tubulogenesis) assay in HUVECs, 18 h. The conditions noted are these: Homo sapiens, HUVEC, 18 h; for activity at 0.1 µM: 0.10 µM. Type of assay: cell-based, human. A digest of the protocol:
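HUVECs (passage 1–5) seeded on reduced-growth-factor basement membrane and exposed to compounds overnight at 37°C, 5% CO2, in 2× maintenance medium with 12.5 ng/mL VEGF; 0.5% DMSO vehicle. Calcein AM-stained tube networks imaged and analysed; vehicle-normalized readouts fit to four-parameter logistic, POD set at one SD of vehicle means.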

Where [2] appears, read: iPSC-EC tube formation, 0.00 µM control = 100.00, read-out: endo.mtl.18hr.
Where [3] appears, read: iPSC-EC tube formation, 0.00 µM control = 100.00, read-out: endo.tlps.18hr.
Where [4] appears, read: iPSC-EC tube formation, 0.00 µM control = 100.00, read-out: endo.tta.18hr.
The mark [5] stands for this setting: iPSC-EC tube formation, 0.00 µM control = 100.00, read-out: endo.ttl.18hr.
The mark [6] stands for this setting: HUVECs, 0.00 µM = 100.00, read-out: huvec.mtl.18hr.
Setting [7] is: HUVECs, 0.00 µM = 100.00, read-out: huvec.tlps.18hr.
[8] abbreviates: HUVECs, 0.00 µM = 100.00, read-out: huvec.tta.18hr.
[9] abbreviates: HUVECs, 0.00 µM = 100.00, read-out: huvec.ttl.18hr.
Where [10] appears, read: endothelial cells (endo), tube formation mtl, read-out: POD endo.mtl.18hr.
[11] abbreviates: endothelial cells (endo), tube formation tlps, read-out: POD endo.tlps.18hr.
Setting [12] is: endothelial cells (endo), tube formation tta, read-out: POD endo.tta.18hr.
[13] abbreviates: endothelial cells (endo), tube formation ttl, read-out: POD endo.ttl.18hr.
[14] abbreviates: tube formation mtl, read-out: POD huvec.mtl.18hr.
[15] abbreviates: tube formation tlps, read-out: POD huvec.tlps.18hr.
[16] abbreviates: tube formation tta, read-out: POD huvec.tta.18hr.
The mark [17] stands for this setting: tube formation ttl, read-out: POD huvec.ttl.18hr.

The structures appear in SMILES notation. Counter-ions that a name gives are not always drawn. Like-named read-outs stand apart in the source and are kept apart here.

For `COc1ccc(-c2ccc(Cl)cc2)cc1` [4'-OMe PCB3], the activity at 0.01 µM in assay [1] (setting [2]) turned out to be 101%; in assay [1] (setting [3]) it was 95.9%; in assay [1] (setting [4]) it was 157%; in assay [1] (setting [5]) it was 149%; in the assay on HUVECs (setting [6]) it was 112%; in the assay with HUVECs (setting [7]), 133%. For the same molecule, the activity at 0.01 µM with HUVECs (setting [8]) was 123%; in the assay on HUVECs (setting [9]) it was 113%. Moreover, the activity at 0.1 µM in assay [1] (setting [2]) is 102%; in assay [1] (setting [3]) it was 127%; in assay [1] (setting [4]), 130%; in assay [1] (setting [5]), 124%; with HUVECs (setting [6]) it was 111%; with HUVECs (setting [7]), 139%. In addition, the figures for the activity at 0.1 µM in the assay with HUVECs (setting [8]) and in the assay with HUVECs (setting [9]) were 131% and 125%, respectively. The activity at 1 µM in assay [1] (setting [2]) came out at 96%; in assay [1] (setting [3]), 95%; in assay [1] (setting [4]), 127%; in assay [1] (setting [5]), 123%; with HUVECs (setting [6]), 103%; in the assay with HUVECs (setting [7]), 128%. The activity at 1 µM in the assay with HUVECs (setting [8]) was found to be 116%; with HUVECs (setting [9]), 111%. Moreover, the activity at 10 µM worked out at 76% in assay [1] (setting [2]); 82.1% in assay [1] (setting [3]); 58.6% in assay [1] (setting [4]); 56.5% in assay [1] (setting [5]); 81.4% with HUVECs (setting [6]); 122% in the assay on HUVECs (setting [7]). In addition, the results for the activity at 10 µM in the assay on HUVECs (setting [8]) and in the assay on HUVECs (setting [9]) were 75.2% and 75.8%, respectively. Moreover, the activity at 100 µM in assay [1] (setting [2]) was 65.6%; in assay [1] (setting [3]), 33%; in assay [1] (setting [4]), 46.5%; in assay [1] (setting [5]) it was 46.3%; with HUVECs (setting [6]) it was 58.6%; with HUVECs (setting [7]), 37.2%. The activity at 100 µM was found to be 51.7% with HUVECs (setting [8]) and 48.9% in the assay with HUVECs (setting [9]). Besides, the minimal effective concentration in assay [1] (iPSC-EC tube formation, top concentration 100.00 µM, read-out: endo.mtl.18hr POD) is 3.4 µM; in assay [1] (iPSC-EC tube formation, top concentration 100.00 µM, read-out: endo.tlps.18hr POD) it was 12.3 µM; in assay [1] (iPSC-EC tube formation, top concentration 100.00 µM, read-out: endo.tta.18hr POD), 7.76 µM; in assay [1] (iPSC-EC tube formation, top concentration 100.00 µM, read-out: endo.ttl.18hr POD), 7.16 µM; in the assay with HUVECs (HUVECs, top concentration 100.00 µM, read-out: huvec.mtl.18hr POD) it was 7.13 µM; in the assay on HUVECs (HUVECs, top concentration 100.00 µM, read-out: huvec.tlps.18hr POD), 49.5 µM. Moreover, the minimal effective concentration stood at 8.82 µM in the assay with HUVECs (HUVECs, top concentration 100.00 µM, read-out: huvec.tta.18hr POD) and 7.82 µM with HUVECs (HUVECs, top concentration 100.00 µM, read-out: huvec.ttl.18hr POD).
As for `COc1ccc(-c2ccc(Cl)cc2)cc1` [4'-OMe-PCB 3, 4′-methoxy-4-chlorobiphenyl], the minimal effective concentration in assay [1] (setting [10]) was determined as 3.4 µM; in assay [1] (setting [11]), 12.3 µM; in assay [1] (setting [12]), 7.76 µM; in assay [1] (setting [13]), 7.16 µM; with HUVECs (setting [14]), 7.13 µM; in the assay on HUVECs (setting [15]), 49.5 µM. The minimal effective concentration in the assay with HUVECs (setting [16]) was found to be 8.82 µM; in the assay on HUVECs (setting [17]) it was 7.82 µM.
Regarding `O=S(=O)(O)Oc1ccc(-c2ccc(Cl)cc2)cc1` [4'-PCB 3 sulfate], the minimal effective concentration in assay [1] (setting [10]) amounted to 4.33 µM; in assay [1] (setting [11]), 11.7 µM; in assay [1] (setting [12]), 16.8 µM; in assay [1] (setting [13]), 11 µM; in the assay with HUVECs (setting [14]) it was 11.2 µM; in the assay with HUVECs (setting [15]), 100 µM. In addition, the minimal effective concentration came out at 25.4 µM in the assay on HUVECs (setting [16]) and 100 µM in the assay with HUVECs (setting [17]).
